Laboratory results published in patent US9650339B2, “Inhibitors of histone demethylases” (Gilead Sciences, Inc., priority 2013, dated 2017).
pEC50, pIC50: −log10 of the molar value.

Experiments:
Type in all cases: cell-based
MCF7 cells = experiment: Cell proliferation assay MCF7; conditions: MCF7 human breast cancer cells; 120 hours; ATPlite 1 Step
In short: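 After 120 h of compound exposure (duplicates, DMSO at most 0.5%) in DMEM GlutaMAX with 10% FBS, ATPlite 1 Step luminescence measured cellular ATP. Compound was added 24 h after seeding, at a density chosen for ~90% confluence at the end.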

KDM5B = target: T1, KDM5B (Homo sapiens, UniProt Q9UGL1); experiment: Histone lysine demethylase immunofluorescence assay, U2OS cells transfected with KDM5B; conditions: U2OS cells transfected with pCMVHA KDM5B; mark detected H3K4me2; 20 hours
T1 construct: (a.a. 1-752); host or cells: U2OS
T1 sequence (Q9UGL1 1-752): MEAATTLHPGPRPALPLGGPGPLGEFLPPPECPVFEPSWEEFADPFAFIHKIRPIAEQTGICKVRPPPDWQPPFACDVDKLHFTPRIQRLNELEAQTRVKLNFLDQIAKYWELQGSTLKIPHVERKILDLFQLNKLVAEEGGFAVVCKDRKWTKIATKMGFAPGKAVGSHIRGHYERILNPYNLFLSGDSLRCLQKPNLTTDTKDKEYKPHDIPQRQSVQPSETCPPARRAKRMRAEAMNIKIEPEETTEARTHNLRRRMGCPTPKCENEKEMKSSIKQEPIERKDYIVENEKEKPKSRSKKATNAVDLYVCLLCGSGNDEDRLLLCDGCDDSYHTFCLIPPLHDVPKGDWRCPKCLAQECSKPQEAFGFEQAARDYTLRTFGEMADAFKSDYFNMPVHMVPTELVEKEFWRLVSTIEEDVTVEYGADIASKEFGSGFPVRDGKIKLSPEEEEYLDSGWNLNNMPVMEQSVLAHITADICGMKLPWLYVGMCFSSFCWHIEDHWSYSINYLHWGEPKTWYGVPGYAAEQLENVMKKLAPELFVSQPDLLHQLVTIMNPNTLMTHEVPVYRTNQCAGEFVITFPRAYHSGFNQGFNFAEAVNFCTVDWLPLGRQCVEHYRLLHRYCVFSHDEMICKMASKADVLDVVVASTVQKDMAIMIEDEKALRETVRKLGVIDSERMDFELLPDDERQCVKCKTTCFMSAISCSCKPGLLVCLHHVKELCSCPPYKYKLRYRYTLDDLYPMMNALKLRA
Procedure: U2OS cells were seeded 24 hours before transfection. Transfection was performed with Fugene HD transfection reagent as recommended by the manufacturer. 6 hours after transfection, the cells were harvested and seeded into multi well plates into media containing compound. The media used was DMEM containing 10% FBS and pen/strep. 20 hours after incubation of cells with compounds, the cells were washed in PBS, harvested by fixation with formaldehyde 4% aqueous solution, and washed in PBS. Subsequently, the cells were permeabilized in PBS with 0.2% Triton X-100 for. Blocking was performed in PBS with 0.2% Triton X-100 and 5% FBS. The cells were incubated with primary antibodies in blocking solution over night at 4° C. The primary antibodies used in the assays were HA.11 (Covance, MMS-101P) and the antibody detecting the mark specified in the table below. After incubation with primary antibodies, the cells were washed with PBS, incubated with secondary antibodies (Alexa fluor 594 goat anti rabbit IgG, Invitrogen, A11012; Alexa flour 488 donkey anti mouse IgG, Invitrogen, A21202) and Hoechst, (Sigma, 33342) in blocking solution, and washed again with PBS. Finally, PBS was added and high throughput imaging and analysis were performed by an IN Cell Analyzer 1000 (GE Healthcare). The robot software analyzed individual cells and divided these into HA+ (transfected cells) and HA− (non-transfected cells). The IC50 values were based on an average measure of the staining of the mark specified in the table below in the transfected cells.

H3K4me3 mark = experiment: Histone lysine demethylase immunofluorescence assay, non-transfected U2OS cells; conditions: Homo sapiens, staining of the H3K4me3 mark, 20 hours incubation with compound
Procedure: U2OS cells were harvested and seeded into multi well plates into media containing compound. The media used was DMEM containing 5% FBS and pen/strep. 20 hours after incubation of cells with compounds, the cells were washed once in PBS, harvested by fixation with formaldehyde 4% aqueous solution, and washed in PBS. Subsequently, the cells were permeabilized in PBS with 0.2% Triton X-100. Blocking was performed in PBS with 0.2% Triton X-100 and 5% FBS. The cells were incubated with αH3K4me3 primary antibody (Cell Signaling, #9751S) in blocking solution over night at 4° C. After incubation with primary antibody, the cells were washed with PBS, incubated with secondary antibody (Alexa fluor 594 goat anti rabbit IgG, Invitrogen, A11012) and Hoechst, (Sigma, 33342) in blocking solution, and washed again with PBS. Finally, PBS was added and high throughput imaging and analysis were performed by an IN Cell Analyzer 1000 (GE Healthcare). The IC50 values were based on an average measure of the staining of the H3K4me3 mark in cells.

| SMILES | pEC50 (MCF7 cells) | pIC50 (KDM5B) | pIC50 (H3K4me3 mark) |
| --- | --- | --- | --- |
| CCN(CC)CCCCNCc1cc(CNC(=O)C(F)(F)F)ccn1 [Compound 1, N-{[2-({[4-(diethylamino)butyl]-amino}methyl)pyridin-4-yl]methyl}-2,2,2-trifluoroacetamide] | > 6.60 | > 6.60 | > 6.60 |
| CN(C)CCCNCc1cc(CN)ccn1 [Compound 3, [2-({[3-(dimethylamino)propyl]-amino}methyl)pyridin-4-yl]methanamine] | > 6.60 | > 6.60 | > 6.60 |
| CCN(CCN(C)C)C(=O)CNCc1cc(CN)ccn1 [Compound 4, 2-({[4-(aminomethyl)pyridin-2-yl]methyl}amino)-N-[2-(dimethylamino)ethyl]-N-ethylacetamide] | > 6.60 | > 6.60 | > 6.60 |
| CCN(CC)CCCCNCc1cc(CN)ccn1 [Compound 5, [2-({[4-(diethylamino)butyl]-amino}methyl)pyridin-4-yl]methanamine] | > 6.60 | > 6.60 | – |
| CCN(CC)CCCCN(Cc1cc(CNC(=O)C(F)(F)F)ccn1)C(=O)C(F)(F)F [Compound 6, N-[4-(diethylamino)butyl]-- 2,2,2-trifluoro-N-({4-[(trifluoroacetamido)-methyl]pyridin-2-yl}methyl)acetamide] | > 6.60 | > 6.60 | > 6.60 |
| NCc1ccnc(CNCCCCN2CCC2)c1 [Compound 7, [2-({[4-(azetidin-1-yl)butyl]amino}methyl)-pyridin-4-yl]-methanamine] | 5.60 to 6.60 | > 6.60 | > 6.60 |
| CN(C)CCCCCNCc1cc(CN)ccn1 [Compound 8, [2-({[5-(dimethylamino)pentyl]-amino}methyl)pyridin-4-yl]methanamine] | > 6.60 | > 6.60 | – |
| CN(C)C(=O)CNCc1cc(CNCC#N)ccn1 [Compound 13, 2-{[(4-{[(cyanomethyl)amino]-methyl}pyridin-2-yl)methyl]amino}-N,N-dimethylacetamide] | – | 5.60 to 6.60 | 5.60 to 6.60 |
| N#CCNCc1ccnc(CNCCCCN(Cc2ccccc2)C2CC2)c1 [Compound 23, 2-[({2-[({4-[benzyl(cyclopropyl)-amino]butyl}amino)-methyl]pyridin-4-yl}methyl)amino]-acetonitrile] | – | 5.60 to 6.60 | > 6.60 |
| CNC(C#N)c1ccnc(CNCCCN(C)C)c1 (stereo not shown) [Compound 24, 2-[2-({[3-(dimethylamino)propyl]-amino}methyl)pyridin-4-yl]-2-(methylamino)-acetonitrile] | – | > 6.60 | > 6.60 |
| CN(C)C(=O)CNCc1cc(/C=N\C2CC2)ccn1 [Compound 33] | – | 5.60 to 6.60 | 5.60 to 6.60 |
| CN(C)C(=O)CNCc1cc(/C=N/CCCc2ccccc2)ccn1 [Compound 34, N,N-dimethyl-2-[({4-[[(3-phenylpropyl)imino]-methyl]pyridin-2-yl}methyl)amino]-acetamide] | < 5.60 | 5.60 to 6.60 | – |
| CN(C)CCC/N=C/c1ccnc(CNCCCN(C)C)c1 [Compound 37, [3-(dimethylamino)propyl]-({4-[{[3-(dimethylamino)propyl]-imino}methyl]pyridin-2-yl}methyl)amine] | > 6.60 | > 6.60 | – |
| C(=N/C1CC1)/c1ccnc(CNCCCN2CCCC2)c1 [Compound 42, N-{[2-({[3-(pyrrolidin-1-yl)propyl]amino}-methyl)pyridin-4-yl]methylidene}-cyclopropanamine] | > 6.60 | > 6.60 | – |
| C(=N\C1CC1)/c1ccnc(CNCCCCN2CCC2)c1 [Compound 44, N-{[2-({[4-(azetidin-1-yl)butyl]amino}methyl)-pyridin-4-yl]methylidene}-cyclopropanamine] | > 6.60 | – | > 6.60 |
| CCN(CC)C(=O)CNCc1cc(/C=N/CCC2CCCCC2)ccn1 [Compound 57, 2-[({4-[[(2-cyclohexylethyl)imino]-methyl]pyridin-2-yl}methyl)amino]-N,N-diethylacetamide] | < 5.60 | – | 5.60 to 6.60 |
| CCCCCCCC/N=C/c1ccnc(CNCC(=O)N(CC)CC)c1 [Compound 58, N,N-diethyl-2-[({4-[(octylimino)methyl]-pyridin-2-yl}methyl)amino]-acetamide] | < 5.60 | – | < 5.60 |
| CCN(CC)CCCCNCc1cc(/C=N/CCOC)ccn1 [Compound 60, [4-(diethylamino)butyl]-({4-[[(2-methoxyethyl)imino]-methyl]pyridin-2-yl}methyl)amine] | > 6.60 | – | – |
| CCN(CCN(C)C)C(=O)CNCc1cc(/C=N/CCC2CCCCC2)ccn1 [Compound 63, 2-[({4-[[(2-cydohexylethyl)-imino]methyl]pyridin-2-yl}methyl)amino]-N-[2-(dimethylamino)-ethyl]-N-ethylacetamide] | > 6.60 | > 6.60 | – |
| CCN(CC)CCCCNCc1cc(C2NCCN2C)ccn1 (stereo not shown) [Compound 65, [4-(diethylamino)-butyl]({[4-(1-methylimidazolidin-2-yl)pyridin-2-yl]methyl})amine] | > 6.60 | > 6.60 | – |
| CCN(CCN(C)C)C(=O)CNCc1cc(/C=N/CCO)ccn1 [Compound 66] | > 6.60 | > 6.60 | – |
| CN(Cc1ccccc1F)C(=O)CNCc1cc(/C=N/CCO)ccn1 [Compound 92, N-[(2-fluorophenyl)methyl]-2-[({4-[[(2-hydroxyethyl)imino]-methyl]pyridin-2-yl}methyl)amino]-N-methylacetamide] | < 5.60 | < 5.60 | – |
| OCC/N=C/c1ccnc(CNCCc2ccccc2OCc2ccccc2)c1 [Compound 93, 2-[({2-[({2-[2-(benzyloxy)phenyl]-ethyl}amino)methyl]-pyridin-4-yl}methylidene)-amino]ethan-1-ol] | < 5.60 | < 5.60 | – |
| CCN(CCC#N)C(=O)CNCc1cc(/C=N/CCO)ccn1 [Compound 94, N-(2-cyanoethyl)-N-ethyl-2-[({4-[[(2-hydroxyethyl)imino]-methyl]pyridin-2-yl}methyl)amino]-acetamide] | < 5.60 | 5.60 to 6.60 | – |
| CC(C)C[C@H](NCc1cc(/C=N/CCO)ccn1)C(=O)N1CCCCC1 [Compound 95, (2S)-2-[({4-[[(2-hydroxyethyl)imino]-methyl]pyridin-2-yl}methyl)amino]-4-methyl-1-(piperidin-1-yl)pentan-1-one] | < 5.60 | < 5.60 | – |
| CN(C)C/C=C/CNCc1cc(C=O)ccn1 [Compound 98, 2-({[(2E)-4-(dimethylamino)but-2-en-1-yl]amino}-methyl)pyridine-4-carbaldehyde] | > 6.60 | > 6.60 | – |
| O=Cc1ccnc(CNCC(=O)N2CCC[C@@H]2CN2CCCC2)c1 [Compound 102, 2-[({2-oxo-2-[(2R)-2-(pyrrolidin-1-ylmethyl)pyrrolidin-1-yl]ethyl}amino)-methyl]pyridine-4-carbaldehyde] | 5.60 to 6.60 | 5.60 to 6.60 | – |
